Laboratory results from ChEMBL document CHEMBL1129896, “New non peptidic C5a receptor antagonists” (Bioorg Med Chem Lett, 1997).

What follows are compounds tested against T1, C5a anaphylatoxin chemotactic receptor 1 (Homo sapiens, UniProt P21730) (assay: Compound was evaluated for the antagonistic activity against C5a anaphylatoxin chemotactic receptor in human neutrophil C5a stimulated respiratory burst assay). Settings: not given.
T1 sequence (P21730 whole entry): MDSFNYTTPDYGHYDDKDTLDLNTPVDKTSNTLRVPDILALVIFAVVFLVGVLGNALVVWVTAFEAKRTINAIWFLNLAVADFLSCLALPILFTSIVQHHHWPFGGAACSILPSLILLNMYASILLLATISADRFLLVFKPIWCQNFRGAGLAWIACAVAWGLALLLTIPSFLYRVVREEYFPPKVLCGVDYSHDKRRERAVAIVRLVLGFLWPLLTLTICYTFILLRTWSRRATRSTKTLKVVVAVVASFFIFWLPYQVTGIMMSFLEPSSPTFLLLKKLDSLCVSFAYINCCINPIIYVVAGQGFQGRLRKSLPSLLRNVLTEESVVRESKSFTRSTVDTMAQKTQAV
Type: functional
Work on `CNC(N)=Nc1ccc(OCCc2ccccc2)c(-c2ccccc2)c1` yielded an IC50 of 0.8 µM.

Each compound was assayed against T1, C5a anaphylatoxin chemotactic receptor 1 (assay: Binding affinity against C5a anaphylatoxin chemotactic receptor assayed on human monocyte cell line U937). Settings: not given.
Type: cell-based, U-937
`CNC(N)=Nc1ccc(OCCCc2ccccc2)c(OCc2ccccc2)c1` gave an IC50 of 6 µM. `CNC(N)=Nc1ccc(OCc2ccccc2)c(-c2ccc(OC)cc2)c1` was tested, and the IC50 was 54 µM. In the case of `CCCCOc1ccc(NC(=N)NC)cc1OCc1ccccc1`, the IC50 is reported as 30 µM. `C/N=C(\N)Nc1ccc(OCc2ccccc2)c(OCc2ccccc2)c1` was tested, and the IC50 was 30 µM. Work on `CNC(N)=Nc1ccc(OCCCc2ccccc2)c(-c2ccccc2)c1` yielded an IC50 of 1 µM. `C/N=C(/N)Nc1ccc(OCc2ccccc2)c(-c2cccs2)c1` showed an IC50 of 9 µM. In the case of `C/N=C(/N)Nc1ccc(OCc2ccccc2)c(-c2cccc(F)c2)c1`, the IC50 is reported as 8 µM. `CNC(N)=Nc1ccc(OCCc2ccccc2)c(OCc2ccccc2)c1` gave an IC50 of 7.5 µM. Work on `CNC(N)=Nc1ccc(OCCC2CCCCC2)c(OCc2ccccc2)c1` yielded an IC50 of 9 µM. In the case of `CNC(N)=Nc1ccc(OCCCCc2ccccc2)c(OCc2ccccc2)c1`, the IC50 is reported as 4 µM. Compound `CNC(N)=Nc1ccc(OCc2ccccc2)c(-c2ccc(Cl)cc2)c1` has an IC50 of 50 µM. With `C/N=C(/N)Nc1ccc(OCc2ccccc2)c(Oc2ccccc2)c1` the IC50 was 4 µM. Compound `C/N=C(/N)Nc1ccc(OCCC2CCCCC2)c(-c2ccccc2)c1` has an IC50 of 1 µM. Compound `C/N=C(/N)Nc1ccc(OCC2CCCCC2)c(OCc2ccccc2)c1` has an IC50 of 8 µM. `CNC(N)=Nc1ccc(OCC2CCCCC2)c(-c2ccccc2)c1` gave an IC50 of 3 µM. With `CNC(N)=Nc1ccc(OCc2ccccc2)c(OC2CCCC2)c1` the IC50 was 25 µM. With `C/N=C(/N)Nc1ccc(OCc2ccccc2)c(-c2cccc3ccccc23)c1` the IC50 was 4.5 µM. With `N=C(N)Nc1ccc(OCc2ccccc2)c(OCc2ccccc2)c1` the IC50 was > 100 µM. With `CNC(N)=Nc1ccc(OCc2ccccc2)c(-c2ccccc2)c1` the IC50 was 2 µM. `CNC(=N)Nc1ccc(OCc2ccccc2)c(-c2cccc(OC)c2)c1` showed an IC50 of 9 µM.

What follows are compounds tested against T2, C5a anaphylatoxin chemotactic receptor 1 (Homo sapiens) (UniProt P21730) (assay: Tested in vitro for the inhibition against C5a anaphylatoxin chemotactic receptor assayed on human monocyte cell line U937 at 30 uM). Settings: U-937.
T2 sequence (whole entry): T1 sequence (P21730 whole entry)
Type: cell-based
`CNC(=N)Nc1ccc(OC)c(OCc2ccccc2)c1` gave an inhibition of 20%. `C/N=C(/N)Nc1ccc(OCc2ccccc2)c(-c2ccc(F)cc2)c1` showed an inhibition of 20%. Compound `CC/N=C(\N)Nc1ccc(OCc2ccccc2)c(OCc2ccccc2)c1` has an inhibition of 40%. In the case of `C/N=C(/N)Nc1ccc(Oc2ccccc2)c(OCc2ccccc2)c1`, the inhibition is reported as 32%.

What follows are compounds tested against T2, C5a anaphylatoxin chemotactic receptor 1 (Homo sapiens) (assay: Tested in vitro for the inhibition against C5a anaphylatoxin chemotactic receptor assayed on human monocyte cell line U937; Inactive at 30 uM). Settings: U-937.
Type: cell-based
`CC(=N)Nc1ccc(OCc2ccccc2)c(OCc2ccccc2)c1` was tested, and the inhibition was < 20%. In the case of `C/N=C(/N)Nc1ccc(OCc2ccccc2)c(OCCc2ccccc2)c1`, the inhibition is reported as < 20%. With `C/N=C(/N)c1ccc(OCc2ccccc2)c(OCc2ccccc2)c1` the inhibition was < 20%. In the case of `Nc1ccc(OCc2ccccc2)c(OCc2ccccc2)c1`, the inhibition is reported as < 20%. In the case of `N=C(N)NCc1ccc(OCc2ccccc2)c(OCc2ccccc2)c1`, the inhibition is reported as < 20%. With `CNC(=N)Nc1ccc(OCc2ccccc2)c(-c2ccccc2OC)c1` the inhibition was < 20%. For `NCc1ccc(OCc2ccccc2)c(OCc2ccccc2)c1`, the inhibition was < 20%. For `CNC(=N)Cc1ccc(OCc2ccccc2)c(OCc2ccccc2)c1`, the inhibition was < 20%.
